Assay results reported in US7811352B2, “Fertilizer compositions and methods of using” (priority 2005, dated 2010).
Marks after values point to notes of the source that are not given here.

What was measured:
Type in all cases: in vivo
[1] = test system: lawn height, Kentucky bluegrass; assay: Injury rating of lawn height Kentucky bluegrass after fertilization (Example 5); settings: about two weeks after application
Description: In this Example, the efficacy of fertilizers on lawn height, Kentucky bluegrass was examined. Fertilizer compositions according to several embodiments of the present disclosure were prepared and compared to the commercial fertilizer products, urea 46-0-0 (granular) fertilizer, Lebanon fertilizer 21-0-12 (granular, commercially available from Lebanon Seaboard Corporation, Lebanon, Pa.) and Milorganite 6-2-0 (granular, commercially available from Milorganite, Milwaukee, Wis.). The fertilizer compositions were applied to the turf grass prior to winter dormancy at a rate equivalent to supplying about 1.0 pounds of nitrogen (N) per 1000 square feet. Each of the fertilizer compositions were applied at substantially equal rates of lbs of nitrogen (N) per 1000 square feet. Table 2 illustrates the response of lawn height, Kentucky bluegrass to fertilization using various exemplary fertilizers of the present invention, taken about two weeks after application of the fertilizer. The letters in the Color and Injury columns correspond to Duncan's Multiple Range Test.

[2] = test system: Moonlight Kentucky bluegrass; assay: Turfgrass quality rating, Kentucky bluegrass lawn (Example 17)
From the text: In this Example, the effect of a fertilizer comprising lysine on cool season lawn variety turfgrass growth was examined. The effects of lysine (HCl) and LIQUID LYSINE on a common variety of law turfgrass (Moonlight Kentucky bluegrass) were compared with those of urea, Milorganite and a blended fertilizer (a blend of methylene urea and urea in an approximately 1:1 ratio).
Fifteen fertilizer treatments comprising three concentrations of each fertilizer composition (Milorganite N—P—K, 6-2-0), urea (N—P—K, 46-0-0), a blended fertilizer, LIQUID LYSINE (N—P—K, 10-2-1), and lysine (HCl) (N—P—K, 15-2-1)) were prepared and applied to 3 replications of newly established “Moonlight” variety Kentucky bluegrass lawn turfgrass. The urea, lysine (HCl), and LIQUID LYSINE were dissolved/suspended in 1.5 gal water prior to application. […], […], The urea, LIQUID LYSINE and lysine (HCl) were applied as foliar liquids, while Milorganite and the blended fertilizer were applied as granular fertilizers. Plot size was 4 ft×8 ft laid out in a replicated complete block design. Plots were mowed at 2.0 inches before fertilizer application and mowed two times per week to 2.0 inch height. Grass clippings were not removed from the plots and no supplemental cultural maintenance or pest management was applied. Irrigation (0.15 inch) was applied following application and thereafter only when necessary to insure survival of the turf. Plots were rated for turfgrass quality (scale of 1-9 where 9=dark green turf, 1=dead/brown turf, and 6=minimally acceptable turf) and phytotoxic injury (scale of 0-9 where 9=significant foliar injury and 2=minimally objectionable foliar injury) throughout the study period. Quality was measured prior to application (day 0) and day 37, day 70 and day 95 after application. Injury was measured on day 37 and day 70 after application. In addition, blade density of the grass was measured on day 70 after application (scale of 1-9, where 9=very dense turf, 1=low density turf). All data was subject to statistical analysis and significant means were determined.

[3] = test system: green height, creeping bentgrass; assay: Injury rating of green height creeping bentgrass after fertilization (Example 4); settings: about two weeks after application
Description: In this Example, the efficacy of fertilizers on green height, creeping bentgrass was examined. Fertilizer compositions according to several embodiments of the present disclosure were prepared and compared to the commercial fertilizer products, urea 46-0-0 (granular) fertilizer, Lebanon fertilizer 21-0-12 (granular, commercially available from Lebanon Seaboard Corporation, Lebanon, Pa.) and Milorganite 6-2-0 (granular, commercially available from Milorganite, Milwaukee, Wis.). The fertilizer compositions were applied to the turf grass prior to winter dormancy of the turf at a rate equivalent to supplying about 1.0 pounds of nitrogen (N) per 1000 square feet. Each of the fertilizer compositions were applied at substantially equal rates of pounds (lbs) of nitrogen (N) per 1000 square feet. Table 1 illustrates the response of green height (i.e., the height of grass on golf course green), creeping bentgrass to fertilization using various exemplary fertilizers of the present invention, taken about two weeks after application of the fertilizer. The letters in the Color and Injury columns correspond to Duncan's Multiple Range Test. Numbers (means) in a column followed by the same letter are not statistically different at P=0.05.

[4] = test system: rhizomatous tall fescue grass; assay: Phytotoxicity (% burn), rhizomatous tall fescue (Example 14)
Description: In this Example, the effect of a fertilizer comprising lysine on turfgrass growth was examined. The effects of lysine (HCl) and LIQUID LYSINE on a common type of lawn quality turfgrass (rhizomatous tall fescue) were compared with those of CoRoN® brand fertilizer.
Six fertilizer treatments comprising two concentrations of each fertilizer composition (Coron® (N—P—K, 14-2-34), LIQUID LYSINE (N—P—K, 10-2-1), and lysine (HCl) (N—P—K, 15-2-1)) were prepared and applied to 3 replications of rhizomatous tall fescue grass. The solutions of lysine (HCl) (dissolved in 0.5 gal water), LIQUID LYSINE and Coran were applied using a Birchmeier backpack sprayer with a 5 foot spray pattern, Each fertilizer treatment was applied in either a 3-split application with an application rate of 2 lb N/1000 ft^2 or a 6-split application with an application rate of 1 lb N/1000 ft^2. Plot size was 9 ft×9 ft set up as a randomized complete block. Irrigation was applied following application. Plots were rated for turfgrass quality and color (scale of 1-10 where 10=dark green turf, 1 =dead/brown turf, and 6=minimally acceptable turf and phytotoxicity (% burn) throughout the study period and compared with two untreated plots. Quality, color, and phytotoxicity were measured on day 7, day 14, day 21, day 28, day 35, and day 42 after application. All data was subject to statistical analysis and significant means were determined. Average turfgrass quality ratings for the treatments are presented in Table 21. Average turfgrass color ratings are presented in Table 22. Average phytotoxicity ratings (as % burn) are presented in Table 23.

[5] = 1.09 Lbs. product/1000 square feet
[6] = 2.17 Lbs. product/1000 square feet
[7] = 6.51 Lbs. product/1000 square feet
[8] = Weekly Rate 0.5 lbs N/1000 ft^2, Day 0
[9] = Weekly Rate 0.5 lbs N/1000 ft^2, Day 37
[10] = Weekly Rate 0.5 lbs N/1000 ft^2, Day 70
[11] = Weekly Rate 0.5 lbs N/1000 ft^2, Day 95
[12] = Weekly Rate 1.0 lbs N/1000 ft^2, Day 0
[13] = Weekly Rate 1.0 lbs N/1000 ft^2, Day 37
[14] = Weekly Rate 1.0 lbs N/1000 ft^2, Day 70
[15] = Weekly Rate 1.0 lbs N/1000 ft^2, Day 95
[16] = Weekly Rate 3.0 lbs N/1000 ft^2, Day 0
[17] = Weekly Rate 3.0 lbs N/1000 ft^2, Day 37
[18] = Weekly Rate 3.0 lbs N/1000 ft^2, Day 70
[19] = Weekly Rate 3.0 lbs N/1000 ft^2, Day 95

NC(N)=O [Urea, urea, reference compound]
Injury 1-9 (9 = no injury) [1, 5]: 8.3
Injury 1-9 (9 = no injury) [1, 6]: 8.7
Injury 1-9 (9 = no injury) [1, 7]: 8.7
Quality Rating - Kentucky Bluegrass [2, 8]: 4.7de
Quality Rating - Kentucky Bluegrass [2, 9]: 6.0b
Quality Rating - Kentucky Bluegrass [2, 10]: 4.3cd
Quality Rating - Kentucky Bluegrass [2, 11]: 4.3ab
Quality Rating - Kentucky Bluegrass [2, 12]: 5.0cde
Quality Rating - Kentucky Bluegrass [2, 13]: 7.7a
Quality Rating - Kentucky Bluegrass [2, 14]: 5.3bc
Quality Rating - Kentucky Bluegrass [2, 15]: 6.3a
Quality Rating - Kentucky Bluegrass [2, 16]: 6.3ab
Quality Rating - Kentucky Bluegrass [2, 17]: 8.0a
Quality Rating - Kentucky Bluegrass [2, 18]: 6.7a
Quality Rating - Kentucky Bluegrass [2, 19]: 4.3ab
Injury 1-9 (9 = no injury) [3, 5]: 8.0^a,b,c
Injury 1-9 (9 = no injury) [3, 6]: 8.7^a
Injury 1-9 (9 = no injury) [3, 7]: 8.3^a,b

Cl.NCCCC[C@H](N)C(=O)O [Lys (HCl) 15% N, L-lysine monohydrochloride]
Phytotoxicity (% Burn) - Tall fescue grass ([4]; 3-split, 2.0 lb N/1000 ft^2, Day 7): 15.0b %
Phytotoxicity (% Burn) - Tall fescue grass ([4]; 3-split, 2.0 lb N/1000 ft^2, Day 14): 6.7b %
Phytotoxicity (% Burn) - Tall fescue grass ([4]; 3-split, 2.0 lb N/1000 ft^2, Day 21): 1.7b %
Phytotoxicity (% Burn) - Tall fescue grass ([4]; 3-split, 2.0 lb N/1000 ft^2, Day 28): 0.0a %
Phytotoxicity (% Burn) - Tall fescue grass ([4]; 3-split, 2.0 lb N/1000 ft^2, Day 35): 0.0a %
Phytotoxicity (% Burn) - Tall fescue grass ([4]; 6-split, 1.0 lb N/1000 ft^2, Day 7): 10.0c %
Phytotoxicity (% Burn) - Tall fescue grass ([4]; 6-split, 1.0 lb N/1000 ft^2, Day 14): 1.7bc %
Phytotoxicity (% Burn) - Tall fescue grass ([4]; 6-split, 1.0 lb N/1000 ft^2, Day 21): 0.0b %
Phytotoxicity (% Burn) - Tall fescue grass ([4]; 6-split, 1.0 lb N/1000 ft^2, Day 28): 0.0a %
Phytotoxicity (% Burn) - Tall fescue grass ([4]; 6-split, 1.0 lb N/1000 ft^2, Day 35): 0.0a %
Quality Rating - Kentucky Bluegrass [2, 8]: 5.0cde
Quality Rating - Kentucky Bluegrass [2, 9]: 5.3b
Quality Rating - Kentucky Bluegrass [2, 10]: 4.3cd
Quality Rating - Kentucky Bluegrass [2, 11]: 5.7ab
Quality Rating - Kentucky Bluegrass [2, 12]: 5.3bcd
Quality Rating - Kentucky Bluegrass [2, 13]: 7.3a
Quality Rating - Kentucky Bluegrass [2, 14]: 6.0ab
Quality Rating - Kentucky Bluegrass [2, 15]: 6.0a
Quality Rating - Kentucky Bluegrass [2, 16]: 6.3ab
Quality Rating - Kentucky Bluegrass [2, 17]: 8.0a
Quality Rating - Kentucky Bluegrass [2, 18]: 6.7a
Quality Rating - Kentucky Bluegrass [2, 19]: 5.7ab
